Data taken from US7348401B2, “Peptides that inhibit complement activation” (priority 2003, dated 2008).
Where no end group is shown, it is not given here.

Tests used:
complement component C5 = target: T1, complement component C5 (Homo sapiens, UniProt P01031); experiment: Phage clone binding to C5 and free-peptide competition assay; settings: for competition among phage clones and free peptides for binding to C5: free peptide at 50, 10 and 1 μM; for specific binding to complement component C5: phage panning / phage clone binding
T1 construct: purchased Advanced Research Technologies
T1 sequence (P01031 19-1676): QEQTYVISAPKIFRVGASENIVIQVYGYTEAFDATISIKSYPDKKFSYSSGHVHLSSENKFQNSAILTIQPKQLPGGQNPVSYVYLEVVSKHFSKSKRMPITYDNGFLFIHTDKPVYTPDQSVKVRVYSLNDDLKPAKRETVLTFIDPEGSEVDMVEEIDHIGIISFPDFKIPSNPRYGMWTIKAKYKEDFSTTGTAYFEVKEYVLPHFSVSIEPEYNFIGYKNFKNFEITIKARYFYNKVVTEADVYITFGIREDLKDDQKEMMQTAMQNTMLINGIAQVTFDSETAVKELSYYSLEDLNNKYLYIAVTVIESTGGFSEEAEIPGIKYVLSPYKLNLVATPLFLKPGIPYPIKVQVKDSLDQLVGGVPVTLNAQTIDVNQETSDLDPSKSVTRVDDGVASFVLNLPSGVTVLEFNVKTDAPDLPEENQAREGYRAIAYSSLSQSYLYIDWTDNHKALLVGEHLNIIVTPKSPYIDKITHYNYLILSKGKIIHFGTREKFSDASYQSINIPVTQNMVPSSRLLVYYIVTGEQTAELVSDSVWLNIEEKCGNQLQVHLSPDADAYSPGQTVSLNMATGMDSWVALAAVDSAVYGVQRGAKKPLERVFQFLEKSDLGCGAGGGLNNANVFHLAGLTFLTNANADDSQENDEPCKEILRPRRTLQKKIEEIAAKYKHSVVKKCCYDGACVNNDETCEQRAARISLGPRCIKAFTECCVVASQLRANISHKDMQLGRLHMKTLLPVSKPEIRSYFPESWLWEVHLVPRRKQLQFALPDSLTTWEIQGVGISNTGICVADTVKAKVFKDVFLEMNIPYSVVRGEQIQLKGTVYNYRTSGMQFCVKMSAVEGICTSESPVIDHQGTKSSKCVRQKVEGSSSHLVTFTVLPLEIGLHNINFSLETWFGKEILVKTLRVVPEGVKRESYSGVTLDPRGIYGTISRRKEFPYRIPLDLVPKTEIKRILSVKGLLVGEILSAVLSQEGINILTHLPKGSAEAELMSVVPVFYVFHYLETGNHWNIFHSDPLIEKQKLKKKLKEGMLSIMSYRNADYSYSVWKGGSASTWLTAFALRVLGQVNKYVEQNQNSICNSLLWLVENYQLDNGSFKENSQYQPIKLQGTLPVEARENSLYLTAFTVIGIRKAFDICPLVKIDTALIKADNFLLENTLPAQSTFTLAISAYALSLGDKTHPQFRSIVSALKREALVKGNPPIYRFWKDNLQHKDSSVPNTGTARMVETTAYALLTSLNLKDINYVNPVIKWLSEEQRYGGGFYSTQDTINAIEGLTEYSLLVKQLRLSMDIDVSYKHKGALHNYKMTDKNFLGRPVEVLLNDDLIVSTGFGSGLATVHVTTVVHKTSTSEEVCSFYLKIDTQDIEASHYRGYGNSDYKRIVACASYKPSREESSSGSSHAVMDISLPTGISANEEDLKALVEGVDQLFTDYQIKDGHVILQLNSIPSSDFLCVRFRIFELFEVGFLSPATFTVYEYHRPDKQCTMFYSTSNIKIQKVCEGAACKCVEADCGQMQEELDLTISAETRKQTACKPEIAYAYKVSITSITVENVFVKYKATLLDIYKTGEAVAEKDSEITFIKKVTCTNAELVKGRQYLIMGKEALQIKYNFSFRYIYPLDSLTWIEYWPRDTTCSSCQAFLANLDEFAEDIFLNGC
Method: Peptides were identified by panning an M13 phage library (New England Biolabs), a random 12mer peptide library with a diversity of 10^11 different peptide structures, against complement component C5. The phage library was panned against C5 using three different methods for immobilizing C5. The binding reactions all contained 2×10^11 phage particles in PBS containing 0.5% BSA and 0.3% Tween 20. The binding reactions were carried out at 25° C. for two hours and then unbound phage were removed by washing 5 times with PBS containing 0.5% BSA and 0.3% Tween20. The phage were eluted by acid (0.2 M Glycine pH 2.2, 1 mg/mL BSA) and immediately neutralized with 1 M Tris pH 9.1. Following elution, recovered phage were amplified in ER2738 E. coli (NEB) and subjected to two more rounds of panning as described above. The methods for immobilizing C5 include directly coating C5 (Advanced Research Technologies) to the surface (1 μg/mL), capturing biotinylated C5 (1 μg/mL) on a neutravidin (Pierce) coated surface, and capturing biotinylated C5a (1 μg/mL) on a neutravidin (Pierce) coated surface. C5 and C5a (Quidel) were biotinylated by incubating with 10 fold molar excess of Sulfo-NHS-LC-LC-Biotin for 2 hours at room temperature at pH 7.4 and then removing excess biotin by gel filtration. A negative selection was performed in the final round against neutravidin for the two latter screening methods. DNA from twenty randomly selected clones from each of the three final libraries was isolated and sequenced.
The binding sites of the peptides were further probed via C5-binding competition assays. Increasing concentrations of each phage clone were incubated for 2 hours with 200 ng of biotinylated C5 in PBS containing 0.5% BSA. The phage bound C5 complex was captured on a neutravidin coated microplate for 20 minutes at room temperature and then washed with PBS containing 0.5% BSA. A peroxidase labeled anti-M13 antibody (Pharmacia) was used to detect the amount of phage bound to C5 with OPD substrate. Competition assays with free peptide were carried out in a similar manner except that one concentration of each phage clone was used which was determined as the concentration giving approximately 50% binding in the previous titration. Free peptide was added to the phage clones at concentrations of 50, 10 and 1 μM and incubated with the biotinylated C5 and the assay was carried out as above.

[1] = test system: classical pathway; antibody sensitized sheep erythrocyte cells; experiment: Classical pathway hemolytic assay (RBC hemolysis assay); assay type: cell-based, human; settings: for inhibition of hemolysis: 100 uM peptide
Method: Inhibition of the classical pathway by the peptides was measured using a standard hemolysis assay, which monitors the lysis of sheep erythrocytes as a result of terminal complex formation (see e.g. FIG. 1, FIG. 10). Various concentrations of peptide were incubated with 50 μL pooled human plasma (diluted 1:30 with GVB^++), 5×10^7 antibody sensitized sheep erythrocyte cells, and GVB^++ buffer to a final volume of 200 μL. The reaction was incubated at 37° C. for one hour and centrifuged. The percentage of lysis was determined by measuring the optical density of the supernatant at 414 nm. 100% lysis was determined by the optical density at 414 nm of the supernatant from a control sample consisting of 5×10^7 antibody sensitized sheep erythrocyte cells in water. The percent inhibition was calculated as the (% lysisno peptide−% lysispeptide)/% lysisno peptide×100.

classical pathway = experiment: Classical pathway component assay (immune complex, ELISA for C5a, SC5b-9, C3a); assay type: biochemical, human; settings: classical pathway, immune complex, human plasma
Method: The inhibition of the classical pathway by the peptides was measured by incubating human plasma in the presence and absence of peptides with an immune complex generated on a surface and then monitoring for the production of complement components C5a, SC5b-9, and C3a. To generate the immune complex, a 10 mg/mL solution of BSA in PBS was incubated at 56° C. for 30 minutes and then used to coat the surface of a microplate by diluting to 50 μg/mL at pH 9.6 and incubating for one hour at 37° C. The plate was washed and then incubated with 18 μg/mL mouse anti-BSA IgG2a (Sigma) for one hour at 37° C. Pooled human plasma with and without various concentrations of peptide were incubated for 30 minutes at 37° C. with the generated immune complex and the reaction was stopped with the addition of EDTA. The plasma samples were then analyzed with commercially available ELISA's for the production of C5a (Pharmingen), SC5b-9 (Quidel), and C3a (Quidel).

alternative pathway = experiment: Alternative activation pathway C.A. membrane assay (ELISA for C5a, SC5b-9, C3a); assay type: biochemical; settings: cellulose acetate hemodialysis membrane, human plasma
Method: Inhibition of the alternative pathway by the peptides was determined by incubating pooled human plasma in the presence and absence of various concentrations of peptide with 20 mg of cellulose acetate hemodialysis membrane at 37° C. for one hour. The reaction was stopped with EDTA and then the samples were analyzed with commercially available ELISA's for the production of C5a (Pharmingen), SC5b-9 (Quidel), and C3a (Quidel).

[2] = test system: complement system activated by zymosan; experiment: Alternative activation pathway zymosan assay (ELISA for C5a, SC5b-9, C3a); assay type: biochemical; settings: 2 mg/mL zymosan, human plasma
Method: The peptides were evaluated for involvement in activation of the complement system by the presence of zymosan. Zymosan, or yeast cell wall, has largely been described as an alternative pathway activator. In addition, there are sugars on the surface of the yeast cell wall which are capable of activating the lectin pathway. Therefore, zymosan can be considered as a general complement activator.
Varying concentrations of peptide were incubated with 2 mg/mL zymosan in pooled human plasma. The reactions were incubated at 37° C. for one hour and then stopped by the addition of EDTA. The samples were centrifuged, the plasma removed, and analyzed with commercially available ELISA's for the production of C5a (Pharmingen), SC5b-9 (Quidel), and C3a (Quidel).

Human mesangial cells = experiment: Inhibition of complement mediated cell death, in vitro autoimmune glomerulonephritis model; assay type: cell-based; settings: 250 μM of peptide, 48 hours
Method: The peptides were evaluated for their ability to inhibit complement mediated cell death in an in vitro autoimmune glomerulonephritis model. Human mesangial cells were cultured to approximately 75% confluency and then treated for one hour at 37° C. with phosphatidyl inositol-phospholipase C to remove GPI-anchored complement regulatory proteins. Following enzyme treatment, the cells were washed and equilibrated in GSBM growth medium supplemented with 2.5% fetal bovine serum for one hour at 37° C. The cells were then incubated in pooled human plasma supplemented with 100 μg/mL of heat aggregated human IVIG (generated by heating at 63° C. for 30 minutes) either in the presence of absence of various concentrations of peptides for 48 hours at 37° C. The source of complement was replenished every 12 hours during the incubation by adding 25% of the original volume of fresh plasma along with heat aggregated IVIG and peptides so that the same final concentrations were maintained. Following the 48 hour incubation, the cells were stained with the commercial Live/Dead Viability kit (Molecular Probes) and the relative fluorescence was measured to determine the extent of cell death. The percent of cell death was calculated versus a control sample in which heat-inactivated plasma, (heated to 56° C. for 30 minutes) as a means of inactivating complement components, was used.

Sequence | competition among phage clones and free peptides for binding to C5 (complement component C5) | specific binding to complement component C5 (complement component C5) | inhibition of hemolysis [1] | C3a production (classical pathway) | C5a production (classical pathway) | SC5b-9 production (classical pathway) | C3a production (alternative pathway) | C5a generation (alternative pathway) | SC5b-9 generation (alternative pathway) | C3a generation [2] | C5a production [2] | SC5b-9 production [2] | inhibitory activity in RBC hemolysis assay compared with parent peptide [1] | inhibition of complement mediated cell death (Human mesangial cells)
DSTWTNFRWEFY [Peptide 8] | significant competition | specifically bound complement component C5 | significant inhibition of hemolysis | neither of these peptides produced an effect | dose-dependent increase in the inhibition | dose-dependent increase in the inhibition | no effect | dose-dependent inhibition | dose-dependent inhibition | no observeable effect | inhibited | inhibited | – | –
SFNDLLWRWEWP [Peptide 7] | significant competition | specifically bound complement component C5 | significant inhibition of hemolysis | enhanced production | inhibited | inhibited | activated | inhibited | inhibited | activated | inhibited | inhibited | – | –
TEEVRWEFPL [Peptide 117] | – | – | – | – | – | – | – | – | – | – | – | – | enhanced the levels of inhibitory activity | up to 69%
TQDNRWEFPLRV [Peptide 13] | significant competition | specifically bound complement component C5 | significant inhibition of hemolysis | neither of these peptides produced an effect | dose-dependent increase in the inhibition | dose-dependent increase in the inhibition | no effect | dose-dependent inhibition | dose-dependent inhibition | no observeable effect | inhibited | inhibited | almost comparable activity | –
